The source of these data is patent US10562910B2, “Nitrogen-containing tricyclic compounds and uses thereof in medicine” (SUNSHINE LAKE PHARMA CO., LTD., priority 2016, dated 2020).

Data set [1] in a line: Pharmacokinetics test in SD rats. The class given is in vivo. Conditions: rat, plasma, male SD rats; for Vd: read-out: Vss; for bioavailability: po 5 mg/kg vs iv 1 mg/kg. The procedure:
Example 22 Pharmacokinetics Test
Experimental animals: six healthy adult male SD rats (purchased from Hunan SJA Laboratory Animal Co. Ltd.) were divided into two groups, three rats in each group, and the two groups were given intravenous injection and oral administration respectively.
Drug preparation: a quantity of a compound of the present invention was weighed, and 5% DMSO, 10% Kolliphor HS15 and 85% saline (0.9%) were added to give target concentrations of the compound solution.
Administration and sample collection: animals were fasted for 12 h before administration, and fed at the time point of 3 hours after the administration. SD rats of one group were given intravenous injection (IV, 1 mg/kg) via hind legs and SD rats of the other group were given oral administration (PO, 5 mg/kg) respectively. Then blood was collected in the rat tail vein at the time point of 0, 0.083, 0.25, 0.5, 1, 2, 4, 6, 8, 24 h respectively, and the blood volume was about 200-400 μL/time point. After the collection of whole blood at each time point, the collected blood was set in K2EDTA anticoagulant tube, and the tube was placed in the incubator with ice packs. All samples were centrifuged for 5 min at 4° C. at 4600 r/min within 15 min. Plasma was separated and collected. The concentrations of different compounds in the plasma of the rats after administration were measured using LC/MS/MS method, and the pharmacokinetic parameters were calculated according to the curve of the drug concentration-time.

The target of the next data set is FXR-LBD (Homo sapiens (Human), UniProt Q96RI1). Kind of data set: TR-FRET Farnesoid X Receptor Coactivator Assay. The class given is biochemical. Conditions: TR-FRET farnesoid X receptor protein coactivator activity. Here is the method:
Purchasing invitrogen PV4833 kits. The procedure refers to LanthaScreen™ TR-FRET Farnesoid X Receptor Coactivator Assay
First, the required amount of the compound was weighed and dissolved in 100% DMSO at the maximum concentration of 3000 μM. The solution at the maximum concentration was diluted by 3-fold serial dilution in DMSO to get 10 concentrations;
Second, the above prepared solutions of different concentrations were diluted to 50-fold with a buffer supplied with the kit, to 2× compound solution, followed by mixing and then 10 μL of the diluted solution was added to a 384 well plate;
Third, FXR-LBD was diluted with a buffer to 4× solution, and 5 μL of the diluent was added to the 384 well plate of second step;
Fourth, Fluorescein-SRC2-2 and Tb anti-GST antibody were diluted to 4× Fluorescein-SRC2-2 and Tb anti-GST antibody solution. Then two reagents were mixed together, and 5 μL of the mixture was added to the 384 well plate of third step;
Finally, the solution of the 384 well above was mixed uniformly by centrifuging, and then incubated at room temperature for 1 h. Then the TR-FRET Endpoint method was used for measuring the solution at wavelengths of 520 nm, 495 nm and 337 nm.
Background: TR-FRET usually uses a lanthanide donor and a delayed reading to cut background.

The target in data set [2] is FXR ligand binding domain (LBD) (Homo sapiens (Human), UniProt Q96RI1). Kind of data set: Mammalian one hybrid (M1H) GAL4 reporter gene assay in HEK293 cells. Conditions: GAL4 reporter gene test. The class given is cell-based. An excerpt: Mammalian one hybrid technology is also called chimeric receptor gene assay. Based on the GAL4 chimera receptor assay, the activity of compounds which mediated activation of FXR was detected by dual luciferase reporter assay. The methods were as follows: cDNA encoding the FXR ligand binding domain (LBD), the yeast GAL4 DNA binding domain (DBD) and the Renilla luciferase DNA were fused to construct a chimera expression plasmid pBIND-FXR (Promega). […] The plasmid pG5Luc (Promega) was used as the reporter plasmid, containing the GAL4 upstream activation sequence (UAS) and the Firefly luciferase receptor gene. All GAL4 reporter gene assays were done in HEK293 cells. Cells were cultured at 37° C., 5% CO2 under humidified conditions. […] The contents were mixed completely and incubated the mixtures for 15 minutes at room temperature. The volume of the transfection mixture was 2.5 μl/well. Trypsinized and diluted the cell slurry at a density of […] (100 μl/well for 96-well plate). Then added required volume of transfection mixture prepared previously into the cell slurry, and dispensed 100 μl/well of the cell slurry into the 96-well plate and incubated the plate for 24 hours at 37° C., 5% CO2 under humidified conditions. Compounds prediluted in complete medium were added into each well and then incubated at 37° C., 5% CO2 under humidified conditions for 18 hours. The firefly and renilla luciferase signal was assayed by Promega's Dual Luciferase Reporter Assay System.
The % Activation value was calculated by the following equation: Activation %=[(X−Min)/(Max−Min)]×100%. “X” is the “F/R” value from compounds. “F/R” means “Firefly/Renilla”. “Min” is the mean “F/R” value from no compound control. “Max” is the mean “F/R” value from reference compound control. Finally, the EC50 value of each compounds were calculated by GraphPrism 5.0.
(In a reporter assay the amount or activity of a reporter protein is the signal.)

Chain of FXR-LBD (Q96RI1 262-486): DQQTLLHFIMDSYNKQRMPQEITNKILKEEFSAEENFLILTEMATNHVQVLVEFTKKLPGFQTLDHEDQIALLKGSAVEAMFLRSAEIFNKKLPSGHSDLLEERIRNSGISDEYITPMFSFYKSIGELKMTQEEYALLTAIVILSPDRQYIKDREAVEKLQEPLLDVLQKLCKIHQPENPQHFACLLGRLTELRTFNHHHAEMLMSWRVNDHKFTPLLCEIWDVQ
Chain of FXR ligand binding domain (LBD) (Q96RI1 261-481): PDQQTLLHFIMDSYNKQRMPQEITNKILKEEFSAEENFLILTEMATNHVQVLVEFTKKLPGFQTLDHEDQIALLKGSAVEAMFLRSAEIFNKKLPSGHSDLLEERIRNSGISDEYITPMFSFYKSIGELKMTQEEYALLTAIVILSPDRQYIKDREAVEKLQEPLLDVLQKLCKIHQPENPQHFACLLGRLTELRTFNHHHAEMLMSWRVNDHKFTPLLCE

In data set [1] (iv 1 mg/kg), `O=C(O)c1ccc2c(c1)Oc1ccc(OCc3c(-c4c(Cl)cccc4Cl)noc3C3CC3)nc1C=C2F` [Example 1, 2-((5-cyclopropyl-3-(2,6-dichlorophenyl)isoxazol-4-yl)methoxy)-10-fluorobenzo[6,7]oxepino[3,2-b]pyridine-7-carboxylic acid] yielded a total exposure AUC(0-inf) of 1540 ng·h/mL, an AUC(0-t) of 1540 ng·h/mL, a Cmax of 1890 ng/mL and a mean residence time (MRT inf) of 47.5 min. In addition, in data set [1] (iv 1 mg/kg), the Tmax was 4.98 min, the clearance turned out to be 11.2 mL/min/kg, the half-life is 43.4 min and the Vd was found to be 0.522 L/kg. In data set [1] (po 5 mg/kg), this molecule came in with an AUC(0-inf) of 4210 ng·h/mL, an AUC(0-t) of 4180 ng·h/mL, a Cmax of 2760 ng/mL and a mean residence time (MRT inf) of 79.2 min. In data set [1] (po 5 mg/kg), the time of peak concentration (Tmax) was found to be 30 min and the half-life was 54.8 min. In data set [1], the bioavailability stood at 55%. Moreover, a half-maximal response on FXR-LBD (EC50) required 49.3 nM.
In data set [1] (iv 1 mg/kg), `O=C(O)c1ccc2c(c1)Oc1ccc(OCc3c(-c4c(Cl)cccc4Cl)noc3C3CC3)nc1CO2` [Example 2, 2-((5-cyclopropyl-3-(2,6-dichlorophenyl)isoxazol-4-yl)methoxy)-11H-benzo[2,3][1,4]dioxepino[6,5-b]pyridine-7-carboxylic acid] registered an AUC(0-inf) of 1150 ng·h/mL, an AUC(0-t) of 1150 ng·h/mL, a Cmax of 2060 ng/mL and an MRT inf of 32.9 min. Moreover, in data set [1] (iv 1 mg/kg), the Tmax came to 4.98 min, the clearance turned out to be 14.8 mL/min/kg, the half-life is 53 min and the Vd was found to be 0.479 L/kg. Moreover, in data set [1] (po 5 mg/kg), the area under the curve AUC(0-inf) turned out to be 4110 ng·h/mL, the area under the curve AUC(0-t) was 4110 ng·h/mL, the highest level (Cmax) was 3640 ng/mL and the MRT inf stood at 55.9 min. Also, in data set [1] (po 5 mg/kg), the time to peak (Tmax) is 30 min and the half-life was 42.6 min. The bioavailability in data set [1] is 72%. On FXR-LBD, the concentration giving a half-maximal response (EC50) worked out at 5.1 nM.
As for `O=C(O)c1ccc2c(c1)Oc1ccc(OCc3c(-c4c(Cl)cccc4Cl)noc3C3CC3)nc1C1CC21` (centres unmarked) [Example 3, 3-((5-cyclopropyl-3-(2,6-dichlorophenyl)isoxazol-4-yl)methoxy)-1a,10b-dihydro-1H-benzo[6,7]cyclopropa[4,5]oxepino[3,2-b]pyridine-8-carboxylic acid], a half-maximal effect at FXR-LBD (EC50) was put at 76.1 nM.
Same read-out and setting: the result for `O=C(O)c1cc(F)c2c(c1)Oc1ccc(OCc3c(-c4c(Cl)cccc4Cl)noc3C3CC3)nc1CC2` [Example 4, 2-((5-cyclopropyl-3-(2,6-dichlorophenyl)isoxazol-4-yl)methoxy)-9-fluoro-10,11-dihydrobenzo[6,7]oxepino[3,2-b]pyridine-7-carboxylic acid] reads 60.4 nM; that for `O=C(O)c1cc2c(cc1F)CCc1nc(OCc3c(-c4c(Cl)cccc4Cl)noc3C3CC3)ccc1O2` [Example 6, 2-((5-cyclopropyl-3-(2,6-dichlorophenyl)isoxazol-4-yl)methoxy)-8-fluoro-10,11-dihydrobenzo[6,7]oxepino[3,2-b]pyridine-7-carboxylic acid], 31 nM.
For the molecule `O=C(O)c1ccc2c(c1)Oc1ccc(OCc3c(-c4c(Cl)cccc4Cl)noc3C3CC3)nc1C(F)(F)C2` [Example 10, 2-((5-cyclopropyl-3-(2,6-dichlorophenyl)isoxazol-4-yl)methoxy)-11,11-difluoro-10,11-dihydrobenzo[6,7]oxepino[3,2-b]pyridine-7-carboxylic acid], in data set [1] (iv 1 mg/kg), the area under the curve AUC(0-inf) is 1330 ng·h/mL, the area under the curve AUC(0-t) is 1330 ng·h/mL, the Cmax is 3020 ng/mL and the mean residence time MRT inf worked out at 25.7 min. In addition, in data set [1] (iv 1 mg/kg), the Tmax turned out to be 4.98 min, the clearance turned out to be 12.6 mL/min/kg, the half-life is 47.6 min and the Vd is 0.322 L/kg. Also, in data set [1] (po 5 mg/kg), the AUC(0-inf) was determined as 5840 ng·h/mL, the AUC(0-t) came out at 5790 ng·h/mL, the maximum concentration (Cmax) came out at 3760 ng/mL and the mean residence time MRT inf was found to be 82.8 min. In data set [1] (po 5 mg/kg), the Tmax was 30 min and the half-life was 57.4 min. In data set [1], this molecule displayed a bioavailability of 88%. This molecule gave an EC50 in data set [2] of 12 nM.
Consider `O=C(O)c1cc2c(cc1O)CCc1nc(OCc3c(-c4c(Cl)cccc4Cl)noc3C3CC3)ccc1O2` [Example 11, 2-((5-cyclopropyl-3-(2,6-dichlorophenyl)isoxazol-4-yl)methoxy)-8-hydroxy-10,11-dihydrobenzo[6,7]oxepino[3,2-b]pyridine-7-carboxylic acid], for which the values for the concentration giving a half-maximal response (EC50) (at FXR-LBD; in data set [2]) were 17 nM and 105 nM, respectively.

The AUC(0-inf) is total exposure, with the tail of the curve extrapolated. Lower therefore signals low exposure. As a reminder, the AUC(0-t) is exposure summed from dosing to a finite time, without extrapolation to infinity. One may read the Cmax as the highest concentration seen after dosing. As a reminder, the MRT inf is a mean duration of stay, worked out from the concentration-time curve. Broadly, the Tmax is the time from dosing to the highest level. By clearance is commonly meant a measure of how efficiently the substance is removed, as volume per time. Higher therefore signals a high capacity for elimination. By half-life is commonly meant how long it takes for the measured level to halve. A low value points to rapid decline. Usually bioavailability stands for the share of a dose that reaches the circulation, judged against a reference dose that is usually intravenous. As a reminder, the EC50 is the concentration giving half of the maximal effect. Low readings indicate an effect from little substance, high ones a need for much substance.
